How the values were obtained:
oat, wild = test: Test C pre-/postemergence herbicide test; type: in vivo, Avena fatua
Method in brief: (§1)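 Herbicidal effect was judged by eye 13 to 15 days after treatment in the greenhouse, using a 0–100 scale against controls. Chemicals in a non-phytotoxic solvent with surfactant were sprayed onto planted loam/sand soil or onto plants 2 to 18 cm tall in a peat-based growing medium.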

wheat (winter wheat) = test: Test C pre-/postemergence herbicide test; type: in vivo, Triticum aestivum
Method in brief: as §1

galium = test: Test A postemergence herbicide test; type: in vivo, Galium aparine
Method in brief: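 Potted in loam soil/sand blend; postemergence application at 1–2 leaf stage (2–10 cm). Greenhouse ~10 d. Visual injury vs untreated, 0–100 scale; 100 = complete control.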

ryegrass, Italian = test: Test C pre-/postemergence herbicide test; type: in vivo, Lolium multiflorum
Method in brief: as §1

kochia = test: Test A pre-/postemergence herbicide test; type: in vivo, Kochia scoparia
Method in brief: (§2)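 Both application timings used compounds in a non-phytotoxic solvent plus surfactant. Pre-emergence: soil sprayed directly after seeding into loam/sand. Post-emergence: foliage of 2–10 cm seedlings (1–2 leaves) sprayed. Injury rated ~10 days later, 0–100.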

sedge, umbrella = test: Test C flooded paddy test; type: in vivo, Cyperus difformis; conditions: Flood
Method in brief: (§3)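 Visual ratings from 0, no effect, to 100, complete control, were made against untreated controls after 13–15 greenhouse days. Compounds had gone straight into paddy water 3 cm above the soil, kept at that depth, on 2-leaf-stage plants.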

ragweed = test: Test A pre-/postemergence herbicide test; type: in vivo, Ambrosia elatior
Method in brief: as §2

rice = test: Test C flooded paddy test; type: in vivo, Oryza sativa; conditions: Flood
Method in brief: as §3

morningglory = test: Test A pre-/postemergence herbicide test; type: in vivo, Ipomoea spp.
Method in brief: as §2

crabgrass, large = test: Test A pre-/postemergence herbicide test; type: in vivo, Digitaria sanguinalis
Method in brief: as §2

[1] = Postemergence, 8 g ai/ha, scale 0 to 100 (0 no effect, 100 complete control)
[2] = Postemergence, 16 g ai/ha, scale 0 to 100 (0 no effect, 100 complete control)
[3] = Postemergence, 31 g ai/ha, scale 0 to 100 (0 no effect, 100 complete control)
[4] = Postemergence, 62 g ai/ha, scale 0 (no effect) to 100 (complete control)
[5] = Preemergence, 31 g ai/ha, scale 0 to 100, 0 is no effect and 100 is complete control
[6] = Preemergence, 62 g ai/ha, scale 0 to 100 (0 no effect, 100 complete control)
[7] = Preemergence, 8 g ai/ha, scale 0 to 100
[8] = Preemergence, 16 g ai/ha, scale 0 to 100
[9] = 500 g ai/ha, 0 to 100 scale (0 no effect, 100 complete control)
[10] = Postemergence, 500 g ai/ha, 0 to 100 scale (0 no effect, 100 complete control)
[11] = Preemergence, 125 g ai/ha, 0 to 100 scale where 0 is no effect and 100 is complete control
[12] = preemergence, 500 g ai/ha, 0 to 100 scale, 0 is no effect and 100 is complete control
[13] = 125 g ai/ha, scale of 0 to 100 where 0 is no effect and 100 is complete control, 13 to 15 days
[14] = 250 g ai/ha, scale of 0 to 100 where 0 is no effect and 100 is complete control, 13 to 15 days
[15] = Postemergence, 125 g ai/ha, visual rating on 0 to 100 scale (0 no effect, 100 complete control), approx. 10 days
[16] = Postemergence, 125 g ai/ha, scale 0 to 100 (0 no effect, 100 complete control)
[17] = Postemergence, 250 g ai/ha, scale 0 to 100 (0 no effect, 100 complete control)
[18] = Preemergence, 125 g ai/ha, scale 0 to 100
[19] = 125 g ai/ha, visual rating on 0 to 100 scale (0 no effect, 100 complete control), approx. 10 days
[20] = Preemergence, 500 g ai/ha, visual rating on 0 to 100 scale (0 no effect, 100 complete control)
[21] = 31 g ai/ha, scale of 0 to 100 where 0 is no effect and 100 is complete control, 13 to 15 days
[22] = 62 g ai/ha, scale of 0 to 100 where 0 is no effect and 100 is complete control, 13 to 15 days
[23] = Preemergence, 62 g ai/ha, scale 0 to 100
[24] = Preemergence, 125 g ai/ha, scale 0 to 100 (0 no effect, 100 complete control)
[25] = Postemergence, 125 g ai/ha, 0 to 100 scale, 0 no effect, 100 complete control
[26] = Preemergence, 125 g ai/ha, visual rating on 0 to 100 scale (0 no effect, 100 complete control)
[27] = preemergence, 500 g ai/ha, 0 to 100 scale

CN1CC(c2ccc(F)cc2)C(C(=O)Nc2cccc(F)c2F)C1=O (centres unmarked) [Compound 271]
Plant response rating, Oat, Wild (oat, wild; [1]): 0
Plant response rating, Oat, Wild (oat, wild; [2]): 0
Plant response rating, Oat, Wild (oat, wild; [3]): 0
Plant response rating, Oat, Wild (oat, wild; [4]): 0
Plant response rating, Wheat (wheat (winter wheat); [1]): 0
Plant response rating, Wheat (wheat (winter wheat); [2]): 0
Plant response rating, Wheat (wheat (winter wheat); [3]): 0
Plant response rating, Wheat (wheat (winter wheat); [4]): 0
Wheat plant response rating (wheat (winter wheat); [5]): 0
Wheat plant response rating (wheat (winter wheat); [6]): 0
Plant response rating, Wheat (wheat (winter wheat); [7]): 0
Plant response rating, Wheat (wheat (winter wheat); [8]): 0
Plant response rating, Galium (galium; 125 g ai/ha, 0 to 100 scale, 0 is no effect, 100 is complete control): 40
Plant response rating, Galium (galium; [9]): 70
Plant response rating, Ryegrass, Italian (ryegrass, Italian; [1]): 0
Plant response rating, Ryegrass, Italian (ryegrass, Italian; [2]): 0
Plant response rating, Ryegrass, Italian (ryegrass, Italian; [3]): 0
Plant response rating, Ryegrass, Italian (ryegrass, Italian; [4]): 0
Ryegrass, Italian plant response rating (ryegrass, Italian; [5]): 0
Ryegrass, Italian plant response rating (ryegrass, Italian; [6]): 10
Plant response rating, Ryegrass, Italian (ryegrass, Italian; [7]): 0
Plant response rating, Ryegrass, Italian (ryegrass, Italian; [8]): 0
Plant response rating, Kochia (kochia; Postemergence, 125 g ai/ha, 0 to 100 scale, 0 is no effect, 100 is complete control): 60
Plant response rating, Kochia (kochia; [10]): 80
Plant response rating, Kochia (kochia; [11]): 50
Plant response rating, Kochia (kochia; [12]): 80
Plant response rating, Sedge, Umbrella (sedge, umbrella; [13]): 0
Plant response rating, Sedge, Umbrella (sedge, umbrella; [14]): 0
Plant response rating, Sedge, Umbrella (sedge, umbrella; 500 g ai/ha, scale 0 to 100): 0
Plant response rating, Sedge, Umbrella (sedge, umbrella; 1000 g ai/ha, scale 0 to 100): 0
Plant response rating, Ragweed (ragweed; [15]): 0
Plant response rating, Ragweed (ragweed; [10]): 60
Plant response rating, Ragweed (ragweed; [11]): 20
Plant response rating, Ragweed (ragweed; [12]): 80
Plant response rating, Rice (rice; [13]): 0
Plant response rating, Rice (rice; [14]): 0
Plant response rating, Rice (rice; 500 g ai/ha, scale 0 to 100): 0
Plant response rating, Rice (rice; 1000 g ai/ha, scale 0 to 100): 0

O=C1NCC(c2cccc(C(F)(F)F)c2)C1C(=O)Nc1ccccc1Cl (centres unmarked) [Compound 312]
Plant response rating, Oat, Wild (oat, wild; [3]): 0
Plant response rating, Oat, Wild (oat, wild; [4]): 0
Plant response rating, Oat, Wild (oat, wild; [16]): 0
Plant response rating, Oat, Wild (oat, wild; [17]): 0
Plant response rating, Wheat (wheat (winter wheat); [3]): 0
Plant response rating, Wheat (wheat (winter wheat); [4]): 0
Plant response rating, Wheat (wheat (winter wheat); [16]): 0
Plant response rating, Wheat (wheat (winter wheat); [17]): 0
Wheat plant response rating (wheat (winter wheat); [6]): 30
Plant response rating, Wheat (wheat (winter wheat); [18]): 60
Plant response rating (scale of 0 to 100), Wheat (wheat (winter wheat); Preemergence, 250 g ai/ha): 65
Plant response rating, Galium (galium; [19]): 30
Plant response rating, Galium (galium; [9]): 50
Plant response rating, Ryegrass, Italian (ryegrass, Italian; [3]): 0
Plant response rating, Ryegrass, Italian (ryegrass, Italian; [4]): 0
Plant response rating, Ryegrass, Italian (ryegrass, Italian; [16]): 35
Plant response rating, Ryegrass, Italian (ryegrass, Italian; [17]): 10
Ryegrass, Italian plant response rating (ryegrass, Italian; [6]): 30
Plant response rating, Ryegrass, Italian (ryegrass, Italian; [18]): 35
Plant response rating (scale of 0 to 100), Ryegrass, Italian (ryegrass, Italian; Preemergence, 250 g ai/ha): 30
Plant response rating, Kochia (kochia; [15]): 20
Plant response rating, Kochia (kochia; [10]): 40
Plant response rating, Kochia (kochia; [11]): 20
Kochia plant response rating (kochia; [20]): 70
Plant response rating, Sedge, Umbrella (sedge, umbrella; [21]): 0
Plant response rating, Sedge, Umbrella (sedge, umbrella; [22]): 0
Plant response rating, Sedge, Umbrella (sedge, umbrella; [13]): 0
Plant response rating, Sedge, Umbrella (sedge, umbrella; [14]): 0
Plant response rating, Ragweed (ragweed; [15]): 20
Plant response rating, Ragweed (ragweed; [10]): 40
Plant response rating, Ragweed (ragweed; [11]): 0
Ragweed plant response rating (ragweed; [20]): 30
Plant response rating, Rice (rice; [21]): 0
Plant response rating, Rice (rice; [22]): 0
Plant response rating, Rice (rice; [13]): 0
Plant response rating, Rice (rice; [14]): 0

O=C1NCC(c2ccc(F)cc2)C1C(=O)Nc1ccccc1F (racemic) [Compound 16]
Plant response rating, Oat, Wild (oat, wild; [23]): 5
Plant response rating, Oat, Wild (oat, wild; [24]): 15
Plant response rating, Morningglory (morningglory; [25]): 0
Plant response rating, Morningglory (morningglory; [10]): 10
Morningglory plant response rating (morningglory; [26]): 0
Plant response rating, Morningglory (morningglory; [27]): 0
Plant response rating, Wheat (wheat (winter wheat); [23]): 0
Plant response rating, Wheat (wheat (winter wheat); [24]): 0
Plant response rating, Ryegrass, Italian (ryegrass, Italian; [23]): 0
Plant response rating, Sedge, Umbrella (sedge, umbrella; [21]): 0
Plant response rating, Sedge, Umbrella (sedge, umbrella; [22]): 0
Plant response rating, Sedge, Umbrella (sedge, umbrella; [13]): 0
Plant response rating, Sedge, Umbrella (sedge, umbrella; 250 g ai/ha, scale 0 to 100): 0
Plant response rating, Rice (rice; [21]): 0
Plant response rating, Rice (rice; [22]): 0
Plant response rating, Rice (rice; [13]): 0
Plant response rating, Rice (rice; 250 g ai/ha, scale 0 to 100): 0
Plant response rating, Crabgrass, Large (crabgrass, large; [25]): 90
Plant response rating, Crabgrass, Large (crabgrass, large; [10]): 90
Crabgrass, Large plant response rating (crabgrass, large; [26]): 90
Plant response rating, Crabgrass, Large (crabgrass, large; [27]): 90

O=C1NCC(c2cccc(C(F)(F)F)c2)C1C(=O)Nc1ccc(F)c(F)c1F (centres unmarked) [Compound 315]
Plant response rating, Oat, Wild (oat, wild; [3]): 0
Plant response rating, Oat, Wild (oat, wild; [4]): 0
Plant response rating, Oat, Wild (oat, wild; [16]): 0
Plant response rating, Oat, Wild (oat, wild; [17]): 0
Plant response rating, Wheat (wheat (winter wheat); [3]): 0
Plant response rating, Wheat (wheat (winter wheat); [4]): 0
Plant response rating, Wheat (wheat (winter wheat); [16]): 0
Plant response rating, Wheat (wheat (winter wheat); [17]): 5
Wheat plant response rating (wheat (winter wheat); [6]): 50
Plant response rating, Wheat (wheat (winter wheat); [18]): 90
Plant response rating (scale of 0 to 100), Wheat (wheat (winter wheat); Preemergence, 250 g ai/ha): 90
Plant response rating, Galium (galium; [19]): 40
Plant response rating, Galium (galium; [9]): 50
Plant response rating, Ryegrass, Italian (ryegrass, Italian; [3]): 0
Plant response rating, Ryegrass, Italian (ryegrass, Italian; [4]): 5
Plant response rating, Ryegrass, Italian (ryegrass, Italian; [16]): 15
Plant response rating, Ryegrass, Italian (ryegrass, Italian; [17]): 45
Ryegrass, Italian plant response rating (ryegrass, Italian; [6]): 50
Plant response rating, Ryegrass, Italian (ryegrass, Italian; [18]): 50
Plant response rating (scale of 0 to 100), Ryegrass, Italian (ryegrass, Italian; Preemergence, 250 g ai/ha): 50
Plant response rating, Kochia (kochia; [15]): 50
Plant response rating, Kochia (kochia; [10]): 70
Plant response rating, Kochia (kochia; [11]): 40
Kochia plant response rating (kochia; [20]): 60
Plant response rating, Ragweed (ragweed; [15]): 20
Plant response rating, Ragweed (ragweed; [10]): 40
Plant response rating, Ragweed (ragweed; [11]): 20
Ragweed plant response rating (ragweed; [20]): 30

O=C1NCC(c2cccc(OC(F)F)c2)C1C(=O)Nc1ccc(F)c(F)c1F (centres unmarked) [Compound 325]
Plant response rating, Oat, Wild (oat, wild; [3]): 0
Plant response rating, Oat, Wild (oat, wild; [4]): 0
Plant response rating, Oat, Wild (oat, wild; [16]): 5
Plant response rating, Oat, Wild (oat, wild; [17]): 15
Plant response rating, Wheat (wheat (winter wheat); [3]): 0
Plant response rating, Wheat (wheat (winter wheat); [4]): 0
Plant response rating, Wheat (wheat (winter wheat); [16]): 0
Plant response rating, Wheat (wheat (winter wheat); [17]): 5
Wheat plant response rating (wheat (winter wheat); [6]): 40
Plant response rating, Wheat (wheat (winter wheat); [18]): 65
Plant response rating, Galium (galium; [19]): 50
Plant response rating, Galium (galium; [9]): 60
Plant response rating, Ryegrass, Italian (ryegrass, Italian; [3]): 0
Plant response rating, Ryegrass, Italian (ryegrass, Italian; [4]): 0
Plant response rating, Ryegrass, Italian (ryegrass, Italian; [16]): 0
Plant response rating, Ryegrass, Italian (ryegrass, Italian; [17]): 30
Ryegrass, Italian plant response rating (ryegrass, Italian; [6]): 40
Plant response rating, Ryegrass, Italian (ryegrass, Italian; [18]): 50
Plant response rating, Kochia (kochia; [15]): 60
Plant response rating, Kochia (kochia; [10]): 80
Plant response rating, Kochia (kochia; [11]): 70
Kochia plant response rating (kochia; [20]): 80
Plant response rating, Ragweed (ragweed; [15]): 20
Plant response rating, Ragweed (ragweed; [10]): 60
Plant response rating, Ragweed (ragweed; [11]): 30
Ragweed plant response rating (ragweed; [20]): 50

From US10294202B2, “Pyrrolidinones as herbicides” (FMC Corporation, priority 2013, dated 2019)
